The results in this text go back to patent US4346094A, “3-Aryl-5-isothiazolecarboxylic acids and related compounds used to lower uric acid levels” (Eli Lilly and Company, priority 1980, dated 1982).

In the assay the target is T1, xanthine oxidase (Bos taurus, UniProt P80457).
T1 construct: purchased Sigma Chemical Company, St. Louis, Mo; host or cells: milk (grade III, chromatographically purified)
Nature of the assay: in vitro xanthine oxidase assay (rate of uric acid formation from xanthine). The format is biochemical. The protocol: Since uric acid is produced by the oxidation of, first, hypoxanthine to xanthine and, second, of xanthine to uric acid via the enzyme, xanthine oxidase, an inhibitor of xanthine oxidase in vivo would obviously decrease the uric acid concentrations in the blood.
Xanthine oxidase activity was measured at room temperature by the rate of uric acid formation from xanthine substrate. In a total volume of 1 ml., the incubation mixture contained 50 micromoles of potassium phosphate buffer at pH 7.4, 0.05 micromoles of xanthine and 0.01 units of enzyme preparation (chromatographically purified milk xanthine oxidase, grade III, obtained from Sigma Chemical Company, St. Louis, Mo.). The absorbence change at 292 nm was recorded by a Gilford recording spectrophotometer and the uric acid formed was calculated using an extinction coefficient of 12 mM^-1 Cm^-1 at 292 nm.

[1] abbreviates: milk xanthine oxidase 0.01 units, 0.05 micromoles xanthine in 1 ml, pH 7.4, room temperature, 292 nm, read-out: I50 (concentration of drug which inhibits 50% of the oxidation of xanthine to uric acid by the xanthine oxidase preparation) (converted).

Read-outs that look alike come from different tables or passages of the source.

T1 sequence (P80457 whole entry): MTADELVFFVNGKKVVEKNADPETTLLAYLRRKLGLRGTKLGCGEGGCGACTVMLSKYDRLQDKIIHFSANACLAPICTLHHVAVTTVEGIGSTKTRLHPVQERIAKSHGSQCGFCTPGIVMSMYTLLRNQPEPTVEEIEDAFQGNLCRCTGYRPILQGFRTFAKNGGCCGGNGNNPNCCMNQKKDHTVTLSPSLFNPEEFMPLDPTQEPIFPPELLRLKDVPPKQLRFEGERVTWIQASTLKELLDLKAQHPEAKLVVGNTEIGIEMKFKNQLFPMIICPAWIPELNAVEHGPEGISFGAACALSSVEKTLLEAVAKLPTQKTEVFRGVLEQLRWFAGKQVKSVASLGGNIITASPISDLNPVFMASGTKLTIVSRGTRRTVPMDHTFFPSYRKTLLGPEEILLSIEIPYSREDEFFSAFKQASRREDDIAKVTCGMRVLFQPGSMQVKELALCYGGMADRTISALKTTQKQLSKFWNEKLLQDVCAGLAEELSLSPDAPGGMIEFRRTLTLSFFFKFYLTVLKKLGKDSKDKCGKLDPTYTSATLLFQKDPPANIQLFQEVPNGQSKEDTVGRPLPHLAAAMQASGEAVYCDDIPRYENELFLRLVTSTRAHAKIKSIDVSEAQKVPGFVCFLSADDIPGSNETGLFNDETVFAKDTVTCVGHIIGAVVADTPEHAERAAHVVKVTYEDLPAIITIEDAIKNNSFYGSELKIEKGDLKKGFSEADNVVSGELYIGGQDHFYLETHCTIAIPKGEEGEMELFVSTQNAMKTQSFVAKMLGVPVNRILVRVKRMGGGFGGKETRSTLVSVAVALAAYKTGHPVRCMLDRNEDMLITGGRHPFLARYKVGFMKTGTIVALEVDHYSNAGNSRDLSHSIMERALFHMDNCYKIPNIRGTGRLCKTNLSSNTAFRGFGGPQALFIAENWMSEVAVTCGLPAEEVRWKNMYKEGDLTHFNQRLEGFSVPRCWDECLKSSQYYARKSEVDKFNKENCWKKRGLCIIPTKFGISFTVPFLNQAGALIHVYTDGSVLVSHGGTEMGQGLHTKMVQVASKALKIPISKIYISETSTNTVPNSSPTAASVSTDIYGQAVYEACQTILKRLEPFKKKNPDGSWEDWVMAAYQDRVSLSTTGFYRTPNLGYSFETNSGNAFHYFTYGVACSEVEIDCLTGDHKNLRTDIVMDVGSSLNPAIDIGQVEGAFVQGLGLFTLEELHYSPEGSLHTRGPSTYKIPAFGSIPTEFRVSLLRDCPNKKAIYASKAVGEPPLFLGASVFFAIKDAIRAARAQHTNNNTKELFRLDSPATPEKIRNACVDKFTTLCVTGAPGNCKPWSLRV

As for `Nc1c(-c2ccc3c(c2)OCO3)nsc1C(=O)O` [3,4-methylenedioxy, 3-(1,3-benzodioxyl-5-yl)-4-amino-5-isothiazolecarboxylic acid], the IC50 under setting [1] is 492 nM. On the same count and under the same terms, the result for `Nc1c(-c2cccs2)nsc1C(=O)O` [Ar=2-thienyl, 3-(2-thienyl)-4-amino-5-isothiazolecarboxylic acid] reads 3310 nM. As for `Nc1c(-c2cccnc2)nsc1C(=O)O` [Ar=3-pyridinyl, 3-(3-pyridyl)-4-amino-5-isothiazolecarboxylic acid], the IC50 under setting [1] is 1490 nM. For `O=C(O)c1snc(-c2cccc(C(F)(F)F)c2)c1F` [R=3-CF3, X=F, 3-(3-trifluoromethylphenyl)-4-fluoro-5-isothiazolecarboxylic acid], the IC50 under setting [1] is 68.7 nM.

The molecule `O=C(O)c1snc(-c2cccc(C(F)(F)F)c2)c1I` [R=3-CF3, X=I, 3-(3-trifluoromethylphenyl)-4-iodo-5-isothiazolecarboxylic acid] showed an IC50 of 238 nM. Turning to `CNc1c(-c2cccc(C(F)(F)F)c2)nsc1C(=O)O` [R=3-CF3, X=NHCH3, 3-(3-trifluoromethylphenyl)-4-methylamino-5-isothiazolecarboxylic acid], the IC50 under setting [1] is 562 nM.

On to `COc1ccc(-c2nsc(C(=O)O)c2N)cc1C` [R=3-CH3, R^1=4-OCH3, 3-(4-methoxy-3-methylphenyl)-4-amino-5-isothiazolecarboxylic acid], for which, under setting [1], the IC50 was 151 nM. The same measure, in the same setting: the result for `Cc1cccc(-c2nsc(C(=O)O)c2N)c1` [R=3-CH3, R^1=H, 3-(3-tolyl)-4-amino-5-isothiazolecarboxylic acid] reads 640 nM. The same measure, in the same setting: then `Cc1cccc(-c2nsc(C(=O)O)c2Cl)c1` [R=3-CH3, X=Cl, 3-(3-tolyl)-4-chloro-5-isothiazolecarboxylic acid], with 134 nM; and `Nc1c(-c2ccc(Cl)c(Cl)c2)nsc1C(=O)O` [R=3-Cl, R^1=4-Cl, 3-(3,4-dichlorophenyl)-4-amino-5-isothiazolecarboxylic acid], with 214 nM. The same measure, in the same setting: then `Nc1c(-c2cccc(Cl)c2)nsc1C(=O)O` [R=3-Cl, R^1=H, 3-(3-chlorophenyl)-4-amino-5-isothiazolecarboxylic acid], with 267 nM; and `O=C(O)c1snc(-c2cccc(Cl)c2)c1Br` [R=3-Cl, X=Br, 3-(3-chlorophenyl)-4-bromo-5-isothiazolecarboxylic acid], with 81.6 nM.

For the molecule `O=C(O)c1snc(-c2cccc(Cl)c2)c1Cl` [R=3-Cl, X=Cl, 3-(3-chlorophenyl)-4-chloro-5-isothiazolecarboxylic acid], the IC50 is 69.3 nM. Consider `O=C(O)c1cc(-c2cccc(Cl)c2)ns1` [R=3-Cl, X=H, 3-(3-chlorophenyl)-5-isothiazolecarboxylic acid], for which the IC50 under setting [1] was 334 nM. `O=C(O)c1snc(-c2cccc(Cl)c2)c1I` [R=3-Cl, X=I, 3-(3-chlorophenyl)-4-iodo-5-isothiazolecarboxylic acid]: under setting [1], the IC50 is 903 nM.

Regarding `COc1ccc(-c2nsc(C(=O)O)c2N)cc1F` [R=3-F, R^1=4-OCH3, 3-(3-fluoro-4-methoxyphenyl)-4-amino-5-isothiazolecarboxylic acid], the IC50 under setting [1] was 67.1 nM. Turning to `Nc1c(-c2cccc(F)c2)nsc1C(=O)O` [R=3-F, R^1=H, 3-(3-fluorophenyl)-4-amino-5-isothiazolecarboxylic acid], under setting [1], the IC50 was 1260 nM. For the molecule `O=C(O)c1snc(-c2cccc(F)c2)c1Cl` [R=3-F, X=Cl, 3-(3-fluorophenyl)-4-chloro-5-isothiazolecarboxylic acid], under setting [1], the IC50 was 116 nM.

As to `COc1ccc(-c2nsc(C(=O)O)c2N)cc1OC` [R=3-OCH3, R^1=4-OCH3, 3-(3,4-dimethoxyphenyl)-4-amino-5-isothiazolecarboxylic acid], under setting [1], the IC50 is 410 nM. Same read-out and setting: then `COc1cc(OC)cc(-c2nsc(C(=O)O)c2N)c1` [R=3-OCH3, R^1=5-OCH3, 3-(3,5-dimethoxyphenyl)-4-amino-5-isothiazolecarboxylic acid], with 89.2 nM; and `COc1cccc(-c2nsc(C(=O)O)c2N)c1` [R=3-OCH3, R^1=H, 3-(3-methoxyphenyl)-4-amino-5-isothiazolecarboxylic acid], with 1160 nM; and `COc1cccc(-c2nsc(C(=O)O)c2Cl)c1` [R=3-OCH3, X=Cl, 3-(3-anisyl)-4-chloro-5-isothiazolecarboxylic acid], with 108 nM. For `COc1cccc(-c2cc(C(=O)O)sn2)c1` [R=3-OCH3, X=H, 3-(3-anisyl)-5-isothiazolecarboxylic acid], under setting [1], the IC50 is 3740 nM. Turning to `COc1cccc(-c2nsc(C(=O)O)c2I)c1` [R=3-OCH3, X=I, 3-(3-anisyl)-4-iodo-5-isothiazolecarboxylic acid], the IC50 under setting [1] is 1720 nM. Turning to `Nc1c(-c2ccc(Br)cc2)nsc1C(=O)O` [R=4-Br, R^1=H, 3-(4-bromophenyl)-4-amino-5-isothiazolecarboxylic acid], under setting [1], the IC50 was 2760 nM. As for `Nc1c(-c2ccc(C(F)(F)F)cc2)nsc1C(=O)O` [R=4-CF3, R^1=H, 3-(4-trifluoromethylphenyl)-4-amino-5-isothiazolecarboxylic acid], the IC50 under setting [1] was 624 nM. Consider `Cc1ccc(-c2nsc(C(=O)O)c2N)cc1` [R=4-CH3, R^1=H, 3-(p-tolyl)-4-amino-5-isothiazolecarboxylic acid], for which the IC50 under setting [1] is 1200 nM.

Regarding `Cc1ccc(-c2nsc(C(=O)O)c2Cl)cc1` [R=4-CH3, X=Cl, 3-(4-tolyl)-4-chloro-5-isothiazolecarboxylic acid], the IC50 under setting [1] is 315 nM. The same measure, in the same setting: the result for `Nc1c(-c2ccc(Cl)cc2)nsc1C(=O)O` [R=4-Cl, R^1=H, 3-(4-chlorophenyl)-4-amino-5-isothiazolecarboxylic acid] reads 2750 nM.

On to `O=C(O)c1snc(-c2ccc(Cl)cc2)c1Br` [R=4-Cl, X=Br, 3-(4-chlorophenyl)-4-bromo-5-isothiazolecarboxylic acid], for which the IC50 is 314 nM. With `O=C(O)c1snc(-c2ccc(Cl)cc2)c1Cl` [R=4-Cl, X=Cl, 3-(4-chlorophenyl)-4-chloro-5-isothiazolecarboxylic acid], under setting [1], the IC50 was 365 nM. On to `O=C(O)c1cc(-c2ccc(Cl)cc2)ns1` [R=4-Cl, X=H, 3-(4-chlorophenyl)-5-isothiazolecarboxylic acid], for which, under setting [1], the IC50 was 1960 nM. Same read-out and setting: then `O=C(O)c1snc(-c2ccc(Cl)cc2)c1I` [R=4-Cl, X=I, 3-(4-chlorophenyl)-4-iodo-5-isothiazolecarboxylic acid], with 2740 nM; and `Nc1c(-c2ccc(F)cc2)nsc1C(=O)O` [R=4-F, R^1=H, 3-(4-fluorophenyl)-4-amino-5-isothiazolecarboxylic acid], with 1600 nM.

For the molecule `O=C(O)c1snc(-c2ccc(F)cc2)c1Cl` [R=4-F, X=Cl, 3-(4-fluorophenyl)-4-chloro-5-isothiazolecarboxylic acid], the IC50 under setting [1] is 202 nM. The same measure, in the same setting: then `CCOc1ccc(-c2nsc(C(=O)O)c2N)cc1` [R=4-OC2 H5, R^1=H, 3-(4-ethoxyphenyl)-4-amino-5-isothiazolecarboxylic acid], with 106 nM.

Regarding `CCCOc1ccc(-c2nsc(C(=O)O)c2N)cc1` [R=4-OC3 H7, R^1=H, 3-(4-propoxyphenyl)-4-amino-5-isothiazolecarboxylic acid], under setting [1], the IC50 is 86.2 nM. As for `COc1ccc(-c2nsc(C(=O)O)c2N)cc1` [R=4-OCH3, R^1=H, 4-amino-3-(4-methoxyphenyl)-5-isothiazolecarboxylic acid], the IC50 under setting [1] is 559 nM.
